22 compounds from patent US9730940B2, “Purine inhibitors of human phosphatidylinositol 3-kinase delta” (priority 2012, dated 2017) can be followed below.

The assay has as its target PI3K-alpha (Homo sapiens (Human), UniProt P42336). Briefly: HTRF PI3K biochemical assay, alpha isoform. The following applies: ratio PI3K-alpha IC50 value/PI3K-delta IC50 value. A general note: In TR-FRET formats the signal depends on donor and acceptor labels being close together.

PI3K-alpha, sequence (P42336 whole entry, looked up, canonical isoform): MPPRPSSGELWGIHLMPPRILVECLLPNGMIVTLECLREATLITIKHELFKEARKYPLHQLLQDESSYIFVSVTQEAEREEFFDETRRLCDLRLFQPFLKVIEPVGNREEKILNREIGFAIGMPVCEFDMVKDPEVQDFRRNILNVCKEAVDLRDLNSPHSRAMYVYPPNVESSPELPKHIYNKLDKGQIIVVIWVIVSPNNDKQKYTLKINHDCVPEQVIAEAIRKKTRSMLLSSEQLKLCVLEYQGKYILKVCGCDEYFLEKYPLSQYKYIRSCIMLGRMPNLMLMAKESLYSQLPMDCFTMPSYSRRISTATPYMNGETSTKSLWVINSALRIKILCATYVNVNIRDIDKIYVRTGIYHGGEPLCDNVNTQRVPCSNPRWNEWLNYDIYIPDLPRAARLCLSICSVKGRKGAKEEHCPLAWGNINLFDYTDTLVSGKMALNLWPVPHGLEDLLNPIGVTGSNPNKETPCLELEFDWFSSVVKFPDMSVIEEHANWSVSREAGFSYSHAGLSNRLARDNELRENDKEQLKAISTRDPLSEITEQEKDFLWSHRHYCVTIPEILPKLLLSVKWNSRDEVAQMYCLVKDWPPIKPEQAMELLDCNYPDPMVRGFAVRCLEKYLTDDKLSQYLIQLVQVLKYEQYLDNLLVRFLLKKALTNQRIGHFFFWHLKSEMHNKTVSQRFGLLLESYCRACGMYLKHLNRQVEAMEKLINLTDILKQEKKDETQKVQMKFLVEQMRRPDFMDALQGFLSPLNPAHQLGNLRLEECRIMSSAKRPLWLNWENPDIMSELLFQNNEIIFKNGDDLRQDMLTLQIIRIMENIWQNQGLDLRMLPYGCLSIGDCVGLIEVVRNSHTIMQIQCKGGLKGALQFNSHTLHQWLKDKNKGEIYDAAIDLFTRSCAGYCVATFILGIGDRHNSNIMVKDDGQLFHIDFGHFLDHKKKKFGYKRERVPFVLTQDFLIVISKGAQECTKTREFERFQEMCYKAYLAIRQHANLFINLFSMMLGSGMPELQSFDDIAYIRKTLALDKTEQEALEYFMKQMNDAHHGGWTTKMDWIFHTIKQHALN
PI3K-alpha, sequence (P27986 whole entry partner, looked up, canonical isoform): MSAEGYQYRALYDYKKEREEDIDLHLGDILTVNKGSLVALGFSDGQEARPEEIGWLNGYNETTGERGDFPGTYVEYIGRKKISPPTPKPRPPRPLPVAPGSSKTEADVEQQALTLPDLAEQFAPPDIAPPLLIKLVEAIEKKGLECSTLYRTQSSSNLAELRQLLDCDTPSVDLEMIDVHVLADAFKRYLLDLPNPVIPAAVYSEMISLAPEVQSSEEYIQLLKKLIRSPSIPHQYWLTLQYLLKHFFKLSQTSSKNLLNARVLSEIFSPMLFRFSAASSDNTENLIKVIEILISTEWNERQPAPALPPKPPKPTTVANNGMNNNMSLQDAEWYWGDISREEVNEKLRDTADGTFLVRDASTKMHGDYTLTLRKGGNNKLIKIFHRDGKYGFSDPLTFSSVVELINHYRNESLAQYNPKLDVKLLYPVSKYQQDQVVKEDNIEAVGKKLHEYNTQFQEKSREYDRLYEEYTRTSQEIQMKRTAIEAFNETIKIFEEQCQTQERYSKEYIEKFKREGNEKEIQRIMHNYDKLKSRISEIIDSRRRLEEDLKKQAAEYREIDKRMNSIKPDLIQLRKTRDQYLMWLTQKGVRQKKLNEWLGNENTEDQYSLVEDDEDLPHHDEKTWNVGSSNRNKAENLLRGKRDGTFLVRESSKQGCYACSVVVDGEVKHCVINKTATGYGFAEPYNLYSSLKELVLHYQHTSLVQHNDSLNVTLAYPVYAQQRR

For the compound `CCn1c(-c2cnc(C)nc2)nc2c(O[C@H]3CCN(c4ccccc4)C3)ncnc21` [Compound 7-19, 9-ethyl-8-(2-methylpyrimidin-5-yl)-6-{[(3S)-1-phenylpyrrolidin-3-yl]oxy}-9H-purine], the “Relative Selectivity versus PI3Kalpha” value is given as above 10.
The figure for `CCn1c(-c2cnc(C)nc2)nc2c(O[C@H]3CCN(C(=O)N4CCC4)C3)ncnc21` [Compound 5-11, 6-{[(3S)-1-(azetidin-1-ylcarbonyl)pyrrolidin-3-yl]oxy}-9-ethyl-8-(2-methylpyrimidin-5-yl)-9H-purine] is above 10; for `CCn1c(-c2cnc(C)nc2)nc2c(O[C@H]3CCN(C(=O)N4CCCCC4)C3)ncnc21` [Compound 5-23, 9-ethyl-8-(2-methylpyrimidin-5-yl)-6-{[(3S)-1-(piperidin-1-ylcarbonyl)pyrrolidin-3-yl]oxy}-9H-purine] it is above 10.
The figure for `CCC(=O)N1CC[C@H](Oc2ncnc3c2nc(-c2cnc(OC)c(C#N)c2)n3C)C1` [Compound 3-37, 2-methoxy-5-(9-methyl-6-{[(3S)-1-propanoylpyrrolidin-3-yl]oxy}-9H-purin-8-yl)pyridine-3-carbonitrile] is above 10.
To `CCn1c(-c2cnc(C)nc2)nc2c(OC3CN(C(=O)OC(C)(C)C)CC3(F)F)ncnc21` (stereo not shown) [Compound 1-47, (4S and 4R)-tert-butyl 4-{[9-ethyl-8-(2-methylpyrimidin-5-yl)-9H-purin-6-yl]oxy}-3,3-difluoropyrrolidine-1-carboxylate] belongs above 10; to `CCn1ncc(-c2nc3c(O[C@H]4CCN(C(=O)C5CC(=O)N(C(C)C)C5)C4)ncnc3n2C)c1C` (stereo partly drawn) [Compound 2-77, 4-{[(3S)-3-{[8-(1-ethyl-5-methyl-1H-pyrazol-4-yl)-9-methyl-9H-purin-6-yl]oxy}pyrrolidin-1-yl]carbonyl}-1-(1-methylethyl)pyrrolidin-2-one], above 10.
Consider `CCn1c(-c2cnc(C)nc2)nc2c(O[C@H]3CCN(c4cncnc4)C3)ncnc21` [Compound 7-23, 9-ethyl-8-(2-methylpyrimidin-5-yl)-6-{[(3S)-1-pyrimidin-5-ylpyrrolidin-3-yl]oxy}-9H-purine], for which the “Relative Selectivity versus PI3Kalpha” value is given as above 10.
The figure for `CCn1ncc(-c2nc3c(O[C@H]4CCN(C(=O)OC(C)C)C4)ncnc3n2C)c1C` [Compound 1-38, 1-methylethyl (3S)-3-{[8-(1-ethyl-5-methyl-1H-pyrazol-4-yl)-9-methyl-9H-purin-6-yl]oxy}pyrrolidine-1-carboxylate] is above 10; for `CCn1c(-c2cnc(C)nc2)nc2c(O[C@H]3CCN(C(=O)N(C)C4CC4)C3)ncnc21` [Compound 5-10, (3S)-N-cyclopropyl-3-{[9-ethyl-8-(2-methylpyrimidin-5-yl)-9H-purin-6-yl]oxy}-N-methylpyrrolidine-1-carboxamide] it is above 10; for `CCn1ncc(-c2nc3c(O[C@H]4CCN(C(=O)c5nnc6n5CCCC6)C4)ncnc3n2C)c1C` [Compound 2-42, 8-(1-ethyl-5-methyl-1H-pyrazol-4-yl)-9-methyl-6-{[(3S)-1-(5,6,7,8-tetrahydro[1,2,4]triazolo[4,3-a]pyridin-3-ylcarbonyl)pyrrolidin-3-yl]oxy}-9H-purine] it is 3.
The figure for `CCn1c(N(C)CCO)nc2c(O[C@H]3CCN(C(=O)OC(C)(C)C)C3)ncnc21` [Compound 13-2, tert-butyl (3S)-3-({9-ethyl-8-[(2-hydroxyethyl)(methyl)amino]-9H-purin-6-yl}oxy)pyrrolidine-1-carboxylate] is above 10; for `CCC(=O)N1CC[C@H](Oc2ncnc3c2nc(-c2cnc(OC)c(C(F)(F)F)c2)n3C)C1` [Compound 3-6, (S)-1-(3-((8-(6-methoxy-5-(trifluoromethyl)pyridin-3-yl)-9-methyl-9H-purin-6-yl)oxy)pyrrolidin-1-yl)propan-1-one] it is above 10.
Regarding `CCn1c(-c2cnc(C)nc2)nc2c(O[C@H]3CCN(C(=O)C4CCC4C)C3)ncnc21` (single isomer, unassigned) [Compound 2-119, 9-ethyl-6-({(3S)-1-[([(1R,2S) or (1R,2R) or (1S,2R) or (1S,2S)]-methy]cyclobutyl)carbonyl]pyrrolidin-3-yl}oxy)-8-(2-methylpyrimidin-5-yl)-9H-purine], the “Relative Selectivity versus PI3Kalpha” value was above 10.
To `CCNC(=O)N1CC[C@H](Oc2ncnc3c2nc(-c2cnc(C)nc2)n3CC)C1` [Compound 5-8, (3S)-N-ethyl-3-{[9-ethyl-8-(2-methylpyrimidin-5-yl)-9H-purin-6-yl]oxy}pyrrolidine-1-carboxamide] belongs above 10; to `CCC(=O)N1CC[C@H](Oc2ncnc3c2nc(-c2cnc(OC)c(C)c2)n3C)C1` [Compound 2-94, (S)-1-(3-((8-(6-methoxy-5-methylpyridin-3-yl)-9-methyl-9H-purin-6-yl)oxy)pyrrolidin-1-yl)propan-1-one], above 10; to `CCn1c(-c2cnc(OC)nc2)nc2c(O[C@H]3CCN(C(=O)C4CC4)C3)ncnc21` [Compound 3-27, 6-{[(3S)-1-(cyclopropylcarbonyl)pyrrolidin-3-yl]oxy}-9-ethyl-8-(2-methoxypyrimidin-5-yl)-9H-purine], above 10.
For the compound `CCn1ncc(-c2nc3c(O[C@H]4CCN(C(=O)c5noc(C(C)(C)O)n5)C4)ncnc3n2C)c1C` [Compound 2-50, 2-(3-{[(3S)-3-{[8-(1-ethyl-5-methyl-1H-pyrazol-4-yl)-9-methyl-9H-purin-6-yl]oxy}pyrrolidin-1-yl]carbonyl}-1,2,4-oxadiazol-5-yl)propan-2-ol], the “Relative Selectivity versus PI3Kalpha” value worked out at 8.
To `CCC(=O)N1CC[C@H](Oc2ncnc3c2nc(C(F)(F)F)n3CC)C1` [Compound 14-6, 9-ethyl-6-{[(3S)-1-propanoylpyrrolidin-3-yl]oxy}-8-(trifluoromethyl)-9H-purine] belongs above 10; to `CCn1c(-c2cnc(C)nc2)nc2c(O[C@H]3C[C@H](NS(=O)(=O)CC)C3)ncnc21` [Compound 9-10, trans-N-(3-{[9-ethyl-8-(2-methylpyrimidin-5-yl)-9H-purin-6-yl]oxy}cyclobutyl) ethanesulfonamide], above 10.
As to `CCn1c(-c2cnc(C)nc2)nc2c(O[C@H]3CCN(C(=O)[C@H]4CCC[C@H]4N)C3)ncnc21` [Compound 2-103, (1R,2S)-2-{[(3S)-3-{[9-ethyl-8-(2-methylpyrimidin-5-yl)-9H-purin-6-yl]oxy}pyrrolidin-1-yl]carbonyl}cyclopentanamine], the “Relative Selectivity versus PI3Kalpha” value is recorded as above 10.
The figure for `CCn1ncc(-c2nc3c(O[C@H]4CCN(C(=O)C(C)C)C4)ncnc3n2C)c1C` [Compound 2-91, (S)-1-(3-((8-(1-ethyl-5-methyl-1H-pyrazol-4-yl)-9-methyl-9H-purin-6-yl)oxy)pyrrolidin-1-yl)-2-methylpropan-1-one] is above 10; for `CCn1c(N(C)CC(C)C)nc2c(O[C@H]3CCN(C(=O)OC(C)(C)C)C3)ncnc21` [Compound 13-1, tert-butyl (3S)-3-({9-ethyl-8-[methyl(2-methylpropyl)amino]-9H-purin-6-yl}oxy)pyrrolidine-1-carboxylate] it is above 10.
